Values of other authors as cited in US20110313054A1, “BRANCHED COPOLYMERS, COMPOSITION AND USES” (Unilever PLC, priority 2009, published 2011).

Settings: in water at 20° C.

Compound	Solubility in water w/w at 20° C.
C=CC(=O)OCCO [2-Hydroxyethyl acrylate]	soluble
C=C(C)C(=O)OCCO [2-Hydroxyethyl methacrylate]	3.00 w/w
C=CC(=O)OCC(C)O (centres unmarked) [2-Hydroxypropyl acrylate]	Soluble
C=C(C)C(=O)OCC(C)O (centres unmarked) [2-Hydroxypropyl methacrylate]	2.17 w/w
C=C(C)C(=O)O [Methacrylic acid]	Soluble
